Laboratory results published in the NIST ThermoML archive (doi:10.1016/j.tca.2014.11.009).

Assay: xn = mol fraction of the nth substance listed
Conditions: 100 kPa, Liquid; for speed of sound: Frequency=3 MHz, Sing-around technique in a fixed-path interferometer; for mass density: Vibrating tube method

O=Cc1ccco1 [2-furaldehyde] + CCC(C)O
Conditions | mass density, 283.15 K [kg/m3] | mass density, 293.15 K [kg/m3] | mass density, 303.15 K [kg/m3] | mass density, 313.15 K [kg/m3] | speed of sound, 283.15 K [m/s] | speed of sound, 293.15 K [m/s] | speed of sound, 303.15 K [m/s] | speed of sound, 313.15 K [m/s]
x1 = 0.0501 | 831.27 | 822.97 | 814.4 | 805.5 | 1279.1 | 1242.7 | 1206.1 | 1169.4
x1 = 0.1001 | 847.35 | 838.83 | 830.06 | 820.99 | 1289.1 | 1252.7 | 1216.1 | 1179.5
x1 = 0.1507 | 863.92 | 855.21 | 846.24 | 837.01 | 1299.3 | 1263.1 | 1226.6 | 1190
x1 = 0.2001 | 880.27 | 871.37 | 862.24 | 852.86 | 1309.5 | 1273.3 | 1236.9 | 1200.5
x1 = 0.3001 | 913.96 | 904.72 | 895.3 | 885.68 | 1330.4 | 1294.4 | 1258.3 | 1222.1
x1 = 0.3501 | 931.13 | 921.74 | 912.18 | 902.46 | 1341.2 | 1305.4 | 1269.3 | 1233.2
x1 = 0.4001 | 948.49 | 938.98 | 929.33 | 919.51 | 1352 | 1316.4 | 1280.4 | 1244.1
x1 = 0.4501 | 966.01 | 956.37 | 946.59 | 936.66 | 1363.4 | 1327.8 | 1291.9 | 1256
x1 = 0.5 | 983.65 | 973.9 | 964.03 | 954.03 | 1375.1 | 1339.4 | 1303.5 | 1267.6
x1 = 0.55 | 1001.41 | 991.58 | 981.69 | 971.7 | 1387.3 | 1351.4 | 1315.5 | 1279.6
x1 = 0.6 | 1019.4 | 1009.48 | 999.51 | 989.44 | 1399.4 | 1363.4 | 1327.4 | 1291.5
x1 = 0.6501 | 1037.63 | 1027.6 | 1017.53 | 1007.37 | 1411.8 | 1375.7 | 1339.6 | 1303.6
x1 = 0.8001 | 1093.43 | 1083.14 | 1072.78 | 1062.25 | 1448.5 | 1412 | 1375.6 | 1339.5
x1 = 0.8999 | 1131.48 | 1121 | 1110.45 | 1099.81 | 1472.1 | 1435.7 | 1399.2 | 1363.1
x1 = 1 | 1169.93 | 1159.33 | 1148.69 | 1138.01 | 1495.4 | 1458.8 | 1422.5 | 1386.5

O=Cc1ccco1 [2-furaldehyde] + CCCCO
Conditions | mass density, 283.15 K [kg/m3] | mass density, 293.15 K [kg/m3] | mass density, 303.15 K [kg/m3] | mass density, 313.15 K [kg/m3] | speed of sound, 283.15 K [m/s] | speed of sound, 293.15 K [m/s] | speed of sound, 303.15 K [m/s] | speed of sound, 313.15 K [m/s]
x1 = 0.0501 | 833.74 | 825.93 | 818 | 809.97 | 1301.8 | 1267.2 | 1233 | 1199.2
x1 = 0.1 | 850.14 | 842.12 | 833.98 | 825.71 | 1310.6 | 1275.9 | 1241.6 | 1207.7
x1 = 0.15 | 866.88 | 858.65 | 850.29 | 841.84 | 1319.6 | 1285 | 1250.5 | 1216.4
x1 = 0.1999 | 883.58 | 875.14 | 866.67 | 858.15 | 1328.7 | 1293.9 | 1259.3 | 1225.2
x1 = 0.2499 | 900.71 | 892.12 | 883.46 | 874.76 | 1337.3 | 1302.9 | 1268.4 | 1234.2
x1 = 0.3 | 917.89 | 909.1 | 900.31 | 891.55 | 1346.9 | 1312.1 | 1277.6 | 1243.3
x1 = 0.4 | 953.02 | 943.94 | 934.84 | 925.74 | 1365.5 | 1330.9 | 1296.4 | 1262.1
x1 = 0.45 | 970.58 | 961.33 | 952.08 | 942.85 | 1375.2 | 1340.7 | 1306.1 | 1271.7
x1 = 0.5 | 988.52 | 979.14 | 969.78 | 960.42 | 1385.7 | 1351 | 1316.3 | 1281.9
x1 = 0.5473 | 1005.5 | 995.94 | 986.39 | 976.86 | 1395.8 | 1361 | 1326.2 | 1291.7
x1 = 0.6999 | 1060.86 | 1050.92 | 1041.03 | 1031.18 | 1429.8 | 1394.6 | 1359.3 | 1324.3
x1 = 0.8 | 1097.24 | 1087.06 | 1076.9 | 1066.74 | 1452.2 | 1416.4 | 1380.7 | 1345.3
x1 = 0.8497 | 1115.11 | 1104.87 | 1094.66 | 1084.43 | 1463.1 | 1427.1 | 1391.3 | 1355.7
x1 = 0.8999 | 1133.5 | 1123.12 | 1112.74 | 1102.3 | 1474.2 | 1438.1 | 1401.9 | 1366.2
x1 = 1 | 1169.93 | 1159.33 | 1148.69 | 1138.01 | 1495.4 | 1458.8 | 1422.5 | 1386.5

O=Cc1ccco1 [2-furaldehyde] + CCO
Conditions | mass density, 283.15 K [kg/m3] | mass density, 293.15 K [kg/m3] | mass density, 303.15 K [kg/m3] | mass density, 313.15 K [kg/m3] | speed of sound, 283.15 K [m/s] | speed of sound, 293.15 K [m/s] | speed of sound, 303.15 K [m/s] | speed of sound, 313.15 K [m/s]
x1 = 0.0486 | 825.34 | 816.58 | 807.7 | 798.67 | 1221.8 | 1187.2 | 1152.6 | 1118.5
x1 = 0.0995 | 852.29 | 843.29 | 834.16 | 824.83 | 1245.2 | 1210.4 | 1175.6 | 1141.2
x1 = 0.15 | 877.44 | 868.21 | 858.83 | 849.37 | 1265.6 | 1230.5 | 1195.7 | 1161.2
x1 = 0.2 | 901.29 | 891.88 | 882.29 | 872.64 | 1284.6 | 1249.7 | 1214.8 | 1180.2
x1 = 0.25 | 924.5 | 914.91 | 905.24 | 895.34 | 1302.7 | 1267.7 | 1232.8 | 1198.2
x1 = 0.3001 | 946.91 | 937.18 | 927.3 | 917.42 | 1320.2 | 1285.2 | 1250.3 | 1215.7
x1 = 0.4501 | 1007.43 | 997.35 | 987.26 | 977.03 | 1367.1 | 1331.9 | 1296.9 | 1262.3
x1 = 0.6501 | 1076.56 | 1066.08 | 1055.65 | 1045.07 | 1421.3 | 1385.7 | 1350.4 | 1315.4
x1 = 0.7007 | 1091.79 | 1081.25 | 1070.76 | 1060.22 | 1433.5 | 1398 | 1362.5 | 1327.2
x1 = 0.7498 | 1105.77 | 1095.26 | 1084.63 | 1074.13 | 1444.7 | 1409.1 | 1373.4 | 1338
x1 = 0.8003 | 1119.65 | 1109.04 | 1098.47 | 1087.81 | 1455.7 | 1419.9 | 1384.2 | 1348.8
x1 = 0.8503 | 1132.81 | 1122.12 | 1111.5 | 1100.88 | 1466.4 | 1430.6 | 1394.6 | 1358.8
x1 = 0.9004 | 1145.37 | 1134.68 | 1124.08 | 1113.48 | 1476.6 | 1440.3 | 1404.2 | 1368.5
x1 = 0.9498 | 1157.85 | 1147.23 | 1136.49 | 1125.72 | 1486.3 | 1450.1 | 1413.8 | 1377.8
x1 = 1 | 1169.93 | 1159.33 | 1148.69 | 1138.01 | 1495.4 | 1458.8 | 1422.5 | 1386.5
